Our source for the Ki, inhibition and Kd values is ChEMBL document CHEMBL2069257, “A fluorescent reporter of ATP binding-competent receptor kinases” (Bioorg Med Chem Lett, 2012).

The structures appear in SMILES notation. The source made the active and inactive calls. The rule behind the calls is not given here.

What is called Ki is the dissociation constant of the complex between target and ligand, obtained from inhibition or displacement. One may read the Kd as the constant that tells how readily two partners part at equilibrium.

In experiment [1] the target is T1, Receptor tyrosine-protein kinase erbB-2 (Homo sapiens, UniProt P04626). In words: Inhibition of ERBB2 autophosphorylation Tyr 1139 residue in human BT474 cells at 2 to 14 uM after 12 hrs by Western blotting. For orientation: Immunoblotting shows a protein as a band on a membrane.
T1 sequence (P04626 whole entry, the tested form may be a part): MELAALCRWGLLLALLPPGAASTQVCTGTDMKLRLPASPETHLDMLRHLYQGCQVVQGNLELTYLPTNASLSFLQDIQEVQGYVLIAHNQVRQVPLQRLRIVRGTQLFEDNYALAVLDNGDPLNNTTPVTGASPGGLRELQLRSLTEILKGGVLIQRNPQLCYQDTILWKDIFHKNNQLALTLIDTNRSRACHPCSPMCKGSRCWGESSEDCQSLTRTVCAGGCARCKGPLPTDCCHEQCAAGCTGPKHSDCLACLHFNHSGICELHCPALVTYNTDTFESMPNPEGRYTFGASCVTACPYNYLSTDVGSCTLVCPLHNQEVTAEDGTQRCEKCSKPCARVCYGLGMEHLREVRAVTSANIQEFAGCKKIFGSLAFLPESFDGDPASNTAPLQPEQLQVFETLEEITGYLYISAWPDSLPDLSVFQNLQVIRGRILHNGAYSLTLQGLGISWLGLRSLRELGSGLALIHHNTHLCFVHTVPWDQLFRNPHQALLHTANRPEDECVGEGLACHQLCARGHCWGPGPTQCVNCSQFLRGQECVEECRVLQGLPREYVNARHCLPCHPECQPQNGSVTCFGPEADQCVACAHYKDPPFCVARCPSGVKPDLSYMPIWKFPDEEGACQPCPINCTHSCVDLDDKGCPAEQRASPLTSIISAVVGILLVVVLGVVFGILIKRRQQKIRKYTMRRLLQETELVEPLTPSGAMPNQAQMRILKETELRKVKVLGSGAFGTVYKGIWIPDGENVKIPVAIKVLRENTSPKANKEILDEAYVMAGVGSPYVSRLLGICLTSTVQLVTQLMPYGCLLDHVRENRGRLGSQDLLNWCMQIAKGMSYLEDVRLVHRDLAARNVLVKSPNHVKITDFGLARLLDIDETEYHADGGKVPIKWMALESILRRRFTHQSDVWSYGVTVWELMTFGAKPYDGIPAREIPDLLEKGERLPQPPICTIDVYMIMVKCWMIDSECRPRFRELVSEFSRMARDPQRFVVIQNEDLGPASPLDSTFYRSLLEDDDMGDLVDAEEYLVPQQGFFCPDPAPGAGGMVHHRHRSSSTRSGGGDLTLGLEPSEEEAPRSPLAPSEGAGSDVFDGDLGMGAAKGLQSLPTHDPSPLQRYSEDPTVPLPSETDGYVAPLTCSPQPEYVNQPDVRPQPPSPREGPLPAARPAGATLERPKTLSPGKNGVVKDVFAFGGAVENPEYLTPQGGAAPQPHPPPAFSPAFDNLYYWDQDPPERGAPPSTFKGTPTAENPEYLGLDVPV
For experiment [2], the target named is T1, Receptor tyrosine-protein kinase erbB-2. Briefly: Inhibition of truncated soluble ERBB2 expressed in human MCF7 cell lysate at 1 to 10 uM after mCherry fluorescence assay pretreated with canertinib before lysis. Type of experiment: cell-based.
For experiment [3] the target is unchanged. Briefly: Inhibition of full-length/His-tagged ERBB2 overexpressed in human MCF7 cells assessed as inhibition of AKT phosphorylation at 0.2 to 6 uM after 12 hrs by Western blot analysis. The format is cell-based.
Experiment [4] addresses Proto-oncogene tyrosine-protein kinase Src (Homo sapiens) (UniProt P12931). In words: Inhibition of SRC using biotinylated HNRNPK as substrate up to 6 uM by blotting method.
Experiment [5] addresses T1, Receptor tyrosine-protein kinase erbB-2. Briefly: Binding affinity to full-length/His-tagged ERBB2 UV-vis emission spectroscopy.
Experiment [6] shares this target. In words: Inhibition of truncated soluble ERBB2 expressed in human MCF7 cell lysate at 1 to 10 uM after mCherry fluorescence assay. Type of experiment: cell-free.
The target of experiment [7] is Proto-oncogene tyrosine-protein kinase Src (Homo sapiens) (UniProt P12931). In words: Inhibition of SRC using biotinylated HNRNPK as substrate at 0.2 to 6 uM by blotting method.
Chain of Proto-oncogene tyrosine-protein kinase Src (Homo sapiens) (P12931 2-536 limits assumed): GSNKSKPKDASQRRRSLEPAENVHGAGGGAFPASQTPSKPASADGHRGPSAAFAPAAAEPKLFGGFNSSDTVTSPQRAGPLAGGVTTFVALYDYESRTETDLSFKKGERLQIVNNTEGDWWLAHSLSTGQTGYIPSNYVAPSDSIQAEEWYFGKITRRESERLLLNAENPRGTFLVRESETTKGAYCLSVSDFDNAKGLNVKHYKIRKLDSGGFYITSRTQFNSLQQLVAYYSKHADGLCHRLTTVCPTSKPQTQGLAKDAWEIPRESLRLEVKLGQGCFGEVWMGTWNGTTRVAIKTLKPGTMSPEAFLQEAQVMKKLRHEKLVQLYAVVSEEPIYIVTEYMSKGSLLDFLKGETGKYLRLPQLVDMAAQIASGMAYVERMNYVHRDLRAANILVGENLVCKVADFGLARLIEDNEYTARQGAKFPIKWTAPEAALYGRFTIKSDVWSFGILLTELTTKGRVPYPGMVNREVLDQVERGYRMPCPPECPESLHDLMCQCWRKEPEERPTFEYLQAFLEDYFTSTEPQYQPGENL

As for `CN(C)c1ccc(/C=C/c2ccc3ncnc(NCc4ccccc4)c3c2)cc1`, in experiment [1], the affinity, expressed as Ki, was 3100 nM. In addition, the inhibition result in experiment [2], in experiment [3] and in experiment [4] was “inactive” in each case. Also, in experiment [5], the Kd was found to be 2900 nM. The inhibition entry in experiment [6] is “Active”.
As for `Cc1ccc(-c2nn(C(C)(C)C)c3ncnc(N)c23)cc1`, the inhibition entry in experiment [7] is “Active”.
